Laboratory results from US7763648B2, “Oxa-steroids derivatives as selective progesterone receptor modulators” (Janssen Pharmaceutica N.V., priority 2006, dated 2010).

Key:
[1] = tested on: T47D human breast cancer cells; assay: T47D Human Breast Cancer Cells Assay (alkaline phosphatase); assay type: cell-based; settings: 24 h with test compound, luminescence
Method: T47D Human Breast Cancer Cells Assay
T47D human breast cancer cells were grown in RPMI medium without phenol red (Invitrogen) containing 10% (v/v) heat-inactivated fetal bovine serum (FBS; Hyclone), 1% (v/v) penicillin-streptomycin (Invitrogen), 1% (w/v) glutamine (Invitrogen), and […] insulin (Sigma). Incubation conditions were 37° C. in a humidified 5% (v/v) carbon dioxide environment.
The cells were plated in 96-well tissue culture plates at 10,000 cells per well in assay medium [RPMI medium without phenol red (Invitrogen) containing 5% (v/v) charcoal-treated FBS (Hyclone) and 1% (v/v) penicillin-streptomycin (Invitrogen)]. Two days later, the medium was decanted and test compound or control were added at a final concentration of 0.1% (v/v) dimethyl sulfoxide in fresh assay medium. Twenty-four hours later, an alkaline phosphatase assay was performed using a SEAP kit (BD Biosciences Clontech, Palo Alto, Calif.). Briefly, the medium was decanted and the cells were fixed for 30 minutes at room temperature with 5% (v/v) formalin (Sigma). The cells were washed once with room temperature Hank's buffered saline solution (Invitrogen). Equal volumes (0.05 mL) of 1× Dilution Buffer, Assay Buffer and 1:20 substrate/enhancer mixture were then added. After 1 hour incubation at room temperature in the dark, the lysate was transferred to a white 96-well plate (Dynex) and luminescence was read using a LuminoSkan Ascent (Thermo Electron, Woburn, Mass.).

[2] = tested on: A549 Human lung carcinoma cells; assay: A549 Human Lung Cell Assay (transfected, dexamethasone challenge, Luc-assay); assay type: cell-based; settings: Dexamathasone challenge, 24 h
Method: A549 Human Lung Cell Assay
A549 Human lung carcinoma cells were grown in F-12K Nutrient Mixture containing 10% (v/v) fetal bovine serum (FBS; Invitrogen), 2 mM glutamine and 0.15% sodium dicarbonate (Invitrogen).
A549 cells were split 1 to 3 in 175 cm tissue culture flask. The cells were incubated at 37° C. in CO2 incubator until the cells were 95% confluent (typically 24-30 hours).
The following solutions were prepared in sterile tubes: (a) Solution A: 1.5 μg/ml of DNA in 8.5 ml OPTI-MEM I Reduced Serum Medium. (GIBCO cat# 31985) and (b) Solution B: 6 μl/ml of DMRIE-C Reagent into […] OPTI-MEM I. The two solutions were combined and mixed gently, then incubated at room temperature for 40 minutes.
The A549 cells prepared above were washed with […] of OPTI-MEM I. The medium was removed and 17 ml of the lipid-DNA complex solution was overlayed onto cells. The cells ere then incubated for 16 h at 37° C. in CO2 incubator. The DNA-containing medium was removed and 30 ml of growth medium was added. (5% Charcoal treated FBS) After 5-6 h, the cells were seeded in a 96 well plate and the cells incubated overnight at 37° C. in CO2 incubator.
To each well was then added 5 μl of test compounds and the cells incubated at 37° C. for 10 min. 5 μL of Dexamathasone (CAS [50-02-2]), was then added to each well for challenger and the cells incubated at 37° C. in CO2 incubator for 24 h. 100 μl of Luc-assay buffer was then added into each cell well and the cells incubated for 30 min at room temperature. A 150 μL sample from each well was then transferred into a DYNEX Microlitel plate and read on Top-counter.

## COc1ccc(C#C[C@]2(O)CC[C@H]3[C@@H]4OCC5=CC(=O)CCC5=C4[C@@H](c4ccc(N(C)C)cc4)C[C@@]32C)cc1 [Compound 15, 11-(4-Dimethylamino-phenyl)-17-hydroxy-17-(4-methoxy-phenylethynyl)-13-methyl-1,2,8,11,12,13,14,15,16,17-decahydro-6H-7-oxa-cyclopenta[a]phenanthren-3-one]
[1]
  IC50: 3.2 nM
[2]
  IC50: 80.3 nM

## CN(C)c1ccc([C@H]2C[C@@]3(C)[C@@H](CC[C@@]3(O)C#Cc3ccccc3F)[C@@H]3OCC4=CC(=O)CCC4=C32)cc1 [Compound 16, 11-(4-Dimethylamino-phenyl)-17-(2-fluoro-phenylethynyl)-17-hydroxy-13-methyl-1,2,8,11,12,13,14,15,16,17-decahydro-6H-7-oxa-cyclopenta[a]phenanthren-3-one]
[1]
  IC50: 1.43 nM
[2]
  IC50: 65.1 nM

## CN(C)c1ccc([C@H]2C[C@@]3(C)[C@@H](CC[C@@]3(O)C#Cc3cccc(F)c3)[C@@H]3OCC4=CC(=O)CCC4=C32)cc1 [Compound 17, 11-(4-Dimethylamino-phenyl)-17-(3-fluoro-phenylethynyl)-17-hydroxy-13-methyl-1,2,8,11,12,13,14,15,16,17-decahydro-6H-7-oxa-cyclopenta[a]phenanthren-3-one]
[1]
  IC50: 1.02 nM
[2]
  IC50: 56.6 nM

## CN(C)c1ccc([C@H]2C[C@@]3(C)[C@@H](CC[C@@]3(O)C#Cc3cc(F)cc(F)c3)[C@@H]3OCC4=CC(=O)CCC4=C32)cc1 [Compound 18, 17-(3,5-Difluoro-phenylethynyl)-11-(4-dimethylamino-phenyl)-17-hydroxy-13-methyl-1,2,8,11,12,13,14,15,16,17-decahydro-6H-7-oxa-cyclopenta[a]phenanthren-3-one]
[1]
  IC50: 0.905 nM
[2]
  IC50: 34.4 nM

## CN(C)c1ccc([C@H]2C[C@@]3(C)[C@@H](CC[C@@]3(O)C#Cc3ccccc3Cl)[C@@H]3OCC4=CC(=O)CCC4=C32)cc1 [Compound 19, 17-(2-Chloro-phenylethynyl)-11-(4-dimethylamino-phenyl)-17-hydroxy-13-methyl-1,2,8,11,12,13,14,15,16,17-decahydro-6H-7-oxa-cyclopenta[a]phenanthren-3-one]
[1]
  IC50: 1.08 nM
[2]
  IC50: 64.8 nM

## CN(C)c1ccc([C@H]2C[C@@]3(C)[C@@H](CC[C@@]3(O)C#Cc3cccc(Cl)c3)[C@@H]3OCC4=CC(=O)CCC4=C32)cc1 [Compound 20, 17-(3-Chloro-phenylethynyl)-11-(4-dimethylamino-phenyl)-17-hydroxy-13-methyl-1,2,8,11,12,13,14,15,16,17-decahydro-6H-7-oxa-cyclopenta[a]phenanthren-3-one]
[1]
  IC50: 12.5 nM
[2]
  IC50: 48.9 nM

## CN(C)c1ccc([C@H]2C[C@@]3(C)[C@@H](CC[C@@]3(O)C#Cc3ccccc3Br)[C@@H]3OCC4=CC(=O)CCC4=C32)cc1 [Compound 21, 17-(2-Bromo-phenylethynyl)-11-(4-dimethylamino-phenyl)-17-hydroxy-13-methyl-1,2,8,11,12,13,14,15,16,17-decahydro-6H-7-oxa-cyclopenta[a]phenanthren-3-one]
[1]
  IC50: 8.6 nM
[2]
  IC50: 62.7 nM

## CN(C)c1ccc([C@H]2C[C@@]3(C)[C@@H](CC[C@@]3(O)C#Cc3ccccc3C(F)(F)F)[C@@H]3OCC4=CC(=O)CCC4=C32)cc1 [Compound 22, 11-(4-Dimethylamino-phenyl)-17-hydroxy-13-methyl-17-(2-trifluoromethyl-phenylethynyl)-1,2,8,11,12,13,14,15,16,17-decahydro-6H-7-oxa-cyclopenta[a]phenanthren-3-one]
[1]
  IC50: 3.15 nM
[2]
  IC50: 51 nM

## CN(C)c1ccc([C@H]2C[C@@]3(C)[C@@H](CC[C@@]3(O)C#Cc3cccc(C(F)(F)F)c3)[C@@H]3OCC4=CC(=O)CCC4=C32)cc1 [Compound 23, 11-(4-Dimethylamino-phenyl)-17-hydroxy-13-methyl-17-(3-trifluoromethyl-phenylethynyl)-1,2,8,11,12,13,14,15,16,17-decahydro-6H-7-oxa-cyclopenta[a]phenanthren-3-one]
[1]
  IC50: 2.65 nM
[2]
  IC50: 45.4 nM

## Cc1ccccc1C#C[C@]1(O)CC[C@H]2[C@@H]3OCC4=CC(=O)CCC4=C3[C@@H](c3ccc(N(C)C)cc3)C[C@@]21C [Compound 24, 11-(4-Dimethylamino-phenyl)-17-hydroxy-13-methyl-17-o-tolylethynyl-1,2,8,11,12,13,14,15,16,17-decahydro-6H-7-oxa-cyclopenta[a]phenanthren-3-one]
[1]
  IC50: 5.8 nM
[2]
  IC50: 113 nM

## Cc1cccc(C#C[C@]2(O)CC[C@H]3[C@@H]4OCC5=CC(=O)CCC5=C4[C@@H](c4ccc(N(C)C)cc4)C[C@@]32C)c1 [Compound 25, 11-(4-Dimethylamino-phenyl)-17-hydroxy-13-methyl-7-m-tolylethynyl-1,2,8,11,12,13,14,15,16,17-decahydro-6H-7-oxa-cyclopenta[a]phenanthren-3-one]
[1]
  IC50: 2.85 nM
[2]
  IC50: 36.3 nM

## CN(C)c1ccc([C@H]2C[C@@]3(C)[C@@H](CC[C@@]3(O)C#Cc3ccsc3)[C@@H]3OCC4=CC(=O)CCC4=C32)cc1 [Compound 29, 11-(4-Dimethylamino-phenyl)-17-hydroxy-13-methyl-17-thiophen-3-ylethynyl-1,2,8,11,12,13,14,15,16,17-decahydro-6H-7-oxa-cyclopenta[a]phenanthren-3-one]
[1]
  IC50: 1.55 nM
[2]
  IC50: 56 nM

## CN(C)CC#C[C@]1(O)CC[C@H]2[C@@H]3OCC4=CC(=O)CCC4=C3C(c3ccc(N(C)C)cc3)C[C@@]21C (some centres unmarked) [Compound 31]
[1]
  IC50: > 1000 nM
[2]
  IC50: > 3000 nM
